Experimental data from ChEMBL document CHEMBL1201862, “PubChem BioAssay data set” (2004).
Activity calls are given as the source filed them.

Columns and labels:
[1] = molecular target: T1, Short transient receptor potential channel 4 (Mus musculus, UniProt Q9QUQ5); test: mouse TRPC4 channel activators, dose response, cell-based, HEK293 TRPC4/mu-opioid, Fluo-4 calcium (AID 434937); type: functional
T1 sequence (Q9QUQ5 whole entry): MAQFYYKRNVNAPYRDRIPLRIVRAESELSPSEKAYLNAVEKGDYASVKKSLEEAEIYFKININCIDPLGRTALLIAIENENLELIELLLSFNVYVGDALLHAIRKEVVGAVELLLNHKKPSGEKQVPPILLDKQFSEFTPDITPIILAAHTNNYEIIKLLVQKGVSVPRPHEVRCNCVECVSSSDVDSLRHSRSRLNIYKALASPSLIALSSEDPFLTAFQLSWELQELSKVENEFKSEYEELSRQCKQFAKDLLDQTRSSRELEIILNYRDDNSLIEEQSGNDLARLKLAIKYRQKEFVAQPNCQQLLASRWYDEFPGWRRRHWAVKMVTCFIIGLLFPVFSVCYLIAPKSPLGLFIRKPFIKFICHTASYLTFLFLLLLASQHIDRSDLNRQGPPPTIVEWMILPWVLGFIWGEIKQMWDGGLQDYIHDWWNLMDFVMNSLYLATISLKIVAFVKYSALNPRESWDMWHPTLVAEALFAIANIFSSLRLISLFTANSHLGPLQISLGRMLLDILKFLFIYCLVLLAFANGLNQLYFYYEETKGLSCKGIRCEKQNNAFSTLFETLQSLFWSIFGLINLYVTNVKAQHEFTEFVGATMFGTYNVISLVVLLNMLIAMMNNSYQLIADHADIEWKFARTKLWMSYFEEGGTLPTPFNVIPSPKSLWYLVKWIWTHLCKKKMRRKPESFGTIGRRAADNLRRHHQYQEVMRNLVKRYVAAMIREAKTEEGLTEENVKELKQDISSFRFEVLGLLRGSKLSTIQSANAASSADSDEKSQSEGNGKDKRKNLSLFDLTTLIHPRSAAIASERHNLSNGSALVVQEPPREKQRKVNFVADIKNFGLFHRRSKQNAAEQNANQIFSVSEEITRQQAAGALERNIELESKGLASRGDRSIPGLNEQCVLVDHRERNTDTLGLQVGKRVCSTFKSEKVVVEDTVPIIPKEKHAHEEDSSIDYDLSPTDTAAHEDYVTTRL

[2] = Luminescence Cell-Based Dose Confirmation HTS to Identify Activators of 5'UTR Stem-Loop Driven Alpha-Synuclein mRNA Translation in H4 Neuroglioblastoma Cells. [Related pubchem assays: 1829 (Project Summary), 1814 (Primary HTS)]; type: functional
[3] = Luminescence Cell-Based Dose Response HTS to Identify Activators of Luciferase Translation or Activity in H4 […] Cells. [Related pubchem assays: 1829 (Project Summary), 1814 (Primary HTS)]; type: functional
[4] = molecular target: T2, High affinity choline transporter 1 (Homo sapiens, UniProt Q9GZV3); test: CHT inhibitors, dose response, cell-based, 5-point CRC, membrane potential dye (AID 504840); type: functional
T2 sequence (Q9GZV3 whole entry): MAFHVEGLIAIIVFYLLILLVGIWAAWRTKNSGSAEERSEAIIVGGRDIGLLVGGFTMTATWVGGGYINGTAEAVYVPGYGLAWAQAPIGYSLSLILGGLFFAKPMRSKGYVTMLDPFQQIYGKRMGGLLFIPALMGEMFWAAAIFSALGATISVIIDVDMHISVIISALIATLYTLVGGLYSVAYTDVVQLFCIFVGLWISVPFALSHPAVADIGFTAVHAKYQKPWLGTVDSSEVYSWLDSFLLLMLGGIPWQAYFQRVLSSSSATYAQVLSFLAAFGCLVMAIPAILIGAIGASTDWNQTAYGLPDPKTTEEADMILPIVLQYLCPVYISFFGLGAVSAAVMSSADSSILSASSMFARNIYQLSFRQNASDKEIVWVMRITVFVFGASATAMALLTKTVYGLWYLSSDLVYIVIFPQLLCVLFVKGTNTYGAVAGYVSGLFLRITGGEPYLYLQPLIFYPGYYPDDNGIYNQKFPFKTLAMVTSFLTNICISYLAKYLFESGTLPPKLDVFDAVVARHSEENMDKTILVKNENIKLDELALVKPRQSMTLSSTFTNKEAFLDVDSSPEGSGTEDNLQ

H4 = test: Luminescence Cell-Based Dose Response HTS to Identify Activators of 5'UTR Stem-Loop Driven Prion Protein mRNA Translation in H4 Neuroglioblastoma Cells. [Related pubchem assays: 1829 (Project Summary), 1814 (Primary HTS)]; type: functional; conditions: Homo sapiens
Streptokinase A = molecular target: T3, Streptokinase A (Streptococcus pyogenes serotype M1, UniProt P10520); test: S. pyogenes streptokinase expression inhibitors, potency, dose response, plasminogen activation absorbance, OD405 (AID 1914); type: functional, Streptococcus pyogenes M1 GAS;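 also: secreted streptokinase activity via plasminogen activation per viability signal from cell pellet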
T3 sequence (P10520 whole entry): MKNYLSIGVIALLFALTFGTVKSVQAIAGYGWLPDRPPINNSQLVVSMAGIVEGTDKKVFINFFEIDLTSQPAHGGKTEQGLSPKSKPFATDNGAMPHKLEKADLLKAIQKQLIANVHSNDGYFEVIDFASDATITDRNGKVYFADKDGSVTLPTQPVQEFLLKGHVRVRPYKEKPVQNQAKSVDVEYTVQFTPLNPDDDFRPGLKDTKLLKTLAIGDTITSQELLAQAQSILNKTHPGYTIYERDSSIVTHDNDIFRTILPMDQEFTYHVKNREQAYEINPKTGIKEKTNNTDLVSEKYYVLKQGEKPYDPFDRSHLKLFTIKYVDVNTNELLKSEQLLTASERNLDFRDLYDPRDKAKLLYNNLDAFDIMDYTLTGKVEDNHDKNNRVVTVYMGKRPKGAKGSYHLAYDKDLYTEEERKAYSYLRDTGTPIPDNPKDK

[5] = test system: Streptococcus sp. 'group A'; test: growth inhibition of control SK(-) GAS strain, dose response, counter-screen for streptokinase expression inhibitor project, luminescence, kanamycin, BacTiterGlo, confirmation (AID 1900); type: functional, organism-based
Streptococcus = test: Group A Streptococcus viability loss, dose response, counter-screen for streptokinase expression inhibitor project, luminescence, BacTiterGlo (AID 1915); type: functional, organism-based;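 also: potency for reduction of bacterial viability or growth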
[6] = cytotoxicity toward NIH3T3 fibroblasts, dose response, counter-screen, cell-based, ATP luminescence, mouse fibroblasts (AID 2010); type: functional;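 also: cells exposed to compound for about 90 hours before reading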
INS1 = test: beta cell apoptosis inhibitors, cytokine rescue, dose response, luminescence, retest (AID 449756); type: functional, cell-based; conditions: Rattus norvegicus;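 also: cell death triggered by IL-1 beta plus TNF-alpha plus IFN-gamma mixture; protective hits raise ATP signal compared with cytokine alone wells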
[7] = inhibitors of intracellular T. cruzi replication, confirmation, NIH3T3 host cells, beta-gal luminescence (AID 2044); type: functional, cell-based;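 also: intracellular parasites grown in NIH/3T3 mouse fibroblasts as host cells; luminescent beta-galactosidase reporter signal from transgenic T. cruzi replicating inside host cells; inhibitors lower the luminescence signal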
Fatty acid synthase = Fatty acid synthase (Homo sapiens, UniProt P49327); test: FAS thioesterase domain inhibitors, dose response, biochemical, kinetic fluorescence intensity (AID 624326); type: functional;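 also: rate of fluorescence rise from hydrolysis of a fluorogenic O-methyl fluorescein ester substrate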
Chain of Fatty acid synthase (P49327 whole entry, the tested form may be a part): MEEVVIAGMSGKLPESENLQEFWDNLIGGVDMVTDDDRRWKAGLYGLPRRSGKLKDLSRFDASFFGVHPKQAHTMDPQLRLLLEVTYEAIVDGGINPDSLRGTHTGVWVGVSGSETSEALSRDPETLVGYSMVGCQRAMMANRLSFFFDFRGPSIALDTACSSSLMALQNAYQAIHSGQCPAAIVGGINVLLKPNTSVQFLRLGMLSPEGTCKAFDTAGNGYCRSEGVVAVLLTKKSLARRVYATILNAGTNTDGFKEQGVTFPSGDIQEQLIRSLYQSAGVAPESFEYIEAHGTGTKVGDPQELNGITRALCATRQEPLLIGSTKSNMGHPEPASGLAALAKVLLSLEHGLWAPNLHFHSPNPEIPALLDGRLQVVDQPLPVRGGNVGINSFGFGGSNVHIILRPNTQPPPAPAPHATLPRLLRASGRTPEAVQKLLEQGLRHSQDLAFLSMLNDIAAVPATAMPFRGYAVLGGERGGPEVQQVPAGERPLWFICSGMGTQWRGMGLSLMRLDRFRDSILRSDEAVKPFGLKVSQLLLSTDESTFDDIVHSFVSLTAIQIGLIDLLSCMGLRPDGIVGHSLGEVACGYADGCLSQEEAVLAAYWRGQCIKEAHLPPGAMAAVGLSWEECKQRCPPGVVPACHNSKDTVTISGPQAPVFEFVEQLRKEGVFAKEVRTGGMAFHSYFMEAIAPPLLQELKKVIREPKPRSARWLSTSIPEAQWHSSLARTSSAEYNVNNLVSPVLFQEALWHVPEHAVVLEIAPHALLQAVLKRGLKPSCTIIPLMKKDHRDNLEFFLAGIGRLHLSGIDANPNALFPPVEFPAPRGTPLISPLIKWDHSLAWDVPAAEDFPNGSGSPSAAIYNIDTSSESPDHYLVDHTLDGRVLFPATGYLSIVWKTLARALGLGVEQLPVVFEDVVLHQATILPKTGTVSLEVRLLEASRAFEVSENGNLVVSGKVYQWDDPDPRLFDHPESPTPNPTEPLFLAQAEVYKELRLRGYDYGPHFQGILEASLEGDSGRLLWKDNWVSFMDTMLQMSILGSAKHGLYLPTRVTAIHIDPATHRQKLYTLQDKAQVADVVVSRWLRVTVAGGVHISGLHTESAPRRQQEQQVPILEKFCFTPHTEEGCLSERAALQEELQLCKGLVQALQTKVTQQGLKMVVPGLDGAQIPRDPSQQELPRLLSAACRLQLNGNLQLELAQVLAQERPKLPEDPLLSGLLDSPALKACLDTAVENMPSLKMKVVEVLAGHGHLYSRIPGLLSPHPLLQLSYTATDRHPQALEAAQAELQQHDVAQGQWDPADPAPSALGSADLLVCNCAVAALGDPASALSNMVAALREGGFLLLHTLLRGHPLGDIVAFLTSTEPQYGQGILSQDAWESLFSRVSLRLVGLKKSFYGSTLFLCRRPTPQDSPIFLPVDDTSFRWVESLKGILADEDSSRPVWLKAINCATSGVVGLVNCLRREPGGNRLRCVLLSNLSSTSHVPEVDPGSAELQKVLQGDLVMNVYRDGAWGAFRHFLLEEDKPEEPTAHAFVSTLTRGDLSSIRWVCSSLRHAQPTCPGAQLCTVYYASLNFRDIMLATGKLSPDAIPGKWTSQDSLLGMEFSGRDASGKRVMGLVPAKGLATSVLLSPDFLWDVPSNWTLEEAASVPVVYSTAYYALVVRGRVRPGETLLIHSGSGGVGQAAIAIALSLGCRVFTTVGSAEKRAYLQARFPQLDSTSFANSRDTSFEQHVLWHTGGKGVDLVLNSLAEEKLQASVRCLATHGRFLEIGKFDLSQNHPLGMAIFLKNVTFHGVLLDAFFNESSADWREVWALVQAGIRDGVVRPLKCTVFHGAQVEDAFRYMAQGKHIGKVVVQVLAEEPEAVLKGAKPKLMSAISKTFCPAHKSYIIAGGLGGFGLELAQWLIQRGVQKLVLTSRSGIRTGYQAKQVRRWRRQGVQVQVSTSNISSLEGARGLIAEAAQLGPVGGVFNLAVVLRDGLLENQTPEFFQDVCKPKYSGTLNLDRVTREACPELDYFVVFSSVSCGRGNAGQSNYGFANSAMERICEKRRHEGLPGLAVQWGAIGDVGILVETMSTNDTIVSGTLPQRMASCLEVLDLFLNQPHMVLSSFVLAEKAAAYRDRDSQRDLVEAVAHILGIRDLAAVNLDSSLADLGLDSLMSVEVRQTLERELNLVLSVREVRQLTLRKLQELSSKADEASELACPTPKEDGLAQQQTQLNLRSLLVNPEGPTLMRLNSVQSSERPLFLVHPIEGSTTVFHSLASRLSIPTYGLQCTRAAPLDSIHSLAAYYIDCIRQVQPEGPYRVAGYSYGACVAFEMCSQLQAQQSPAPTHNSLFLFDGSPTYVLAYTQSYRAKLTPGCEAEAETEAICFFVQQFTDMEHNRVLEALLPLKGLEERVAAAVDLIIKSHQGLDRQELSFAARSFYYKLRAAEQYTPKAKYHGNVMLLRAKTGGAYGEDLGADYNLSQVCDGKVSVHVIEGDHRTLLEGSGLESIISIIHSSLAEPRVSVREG

Row | SMILES | EC50 [1] | IC50 [4] | further results
1 | Cc1noc(C)c1S(=O)(=O)N1CCC(C(=O)NCCCN2CC(C)CC(C)C2)CC1 (stereo not given) | 0.473 µM (active) | – | –
2 | Cc1ccc2nc3c(O)n(CCc4c[nH]cn4)cnc-3c2c1 | 1.88 µM (active) | – | –
3 | Cc1ccc(Nc2nc(CSc3nnc(-c4ccc(F)cc4)n3C)cs2)cc1 | – | 15.8 µM (active) | EC50 [2]: 17.2 µM (active); EC50 [3]: 16.9 µM (active); EC50 (H4): 15 µM (active)
4 | O=C(NC(=S)NNC(=O)c1ccccc1[N+](=O)[O-])c1ccc(Br)cc1 | 11.9 µM (active) | – | EC50 (Streptokinase A): > 150 µM (not active); EC50 [5]: 4.24 µM (active); EC50 (Streptococcus): 11.6 µM (active)
5 | CCCc1cc(Nc2c(C)n(C)n(-c3ccccc3)c2=O)n2c(nc3ccccc32)c1C#N | – | 13.8 µM (active) | –
6 | c1ccc2c(CN3CCCCCCC3)c[nH]c2c1 | – | 12.6 µM (active) | EC50 [6]: > 30 µM (not active); AC50 (INS1): 4.22 µM (active); EC50 [7]: 1.15 µM (active)
7 | CCn1c(N2CCN(CC(=O)Nc3cccc(C)c3C)CC2)nc2ccccc21 | 2.11 µM (active) | – | –
8 | CCN(CC(=O)Nc1cccc(OC)c1)c1ncnc2sc(C)c(C)c12 | – | 7.24 µM (active) | –
9 | O=C(c1cc2c(nc1O)CCCC2)N1CCc2c([nH]c3ccccc23)C1c1ccccc1F (stereo not given) | – | 19.1 µM (active) | –
10 | CCCc1cc(C(=O)Nc2cccc([N+](=O)[O-])c2)cs1 | – | – | IC50 (Fatty acid synthase): 8.66 µM (active)
11 | O=C(CSc1nc2ccccc2[nH]1)c1ccc2c(c1)OCO2 | – | 10 µM (active) | –
